We go through 1 molecule from PMC4864979 (Bioorganic & medicinal chemistry, 2015).

The test system of this test is 50 kinases. Nature of the test: Profiling against 50 kinases, radioactive filter-binding assay. The test is classed as biochemical. Conditions: duplicate (Supplementary Figure 1).

Take `NCCCNc1nc(Nc2cccc(NC(=O)N3CCCC3)c2)ncc1I` [Compound 3, N-(3-((4-((3-aminopropyl)amino)-5-iodopyrimidin-2-yl)amino)phenyl)pyrrolidine-1-carboxamide]: the “selectivity throughout the kinome” value was “good selectivity throughout the kinome”.
